In US20190079079A1, “3-D TISSUE CULTURE BASED METHOD TO ASSESS MITOCHONDRIAL IMPAIRMENT” (INSPHERO AG, priority 2016, published 2019):
Structures can show the parent of a compound that is named as a salt. Where two headings read alike, the source gives them in different places.

Key:
[1] = categorized by Gustafsson et al; cited from earlier work
[2] = test system: 3D primary human hepatocytes microtissues (IPHH_02); experiment: Seahorse XF Analyzer measurement of spare respiratory capacity (microtissue-specific respiration rate, MTSRR) after 48 h compound exposure; details: High: IC50_MTSRR<0.75×IC50_CV/CYT; Low: IC50_MTSRR<IC50_CV/CYT and ≥0.75×IC50_CV/CYT; No: IC50_MTSRR≥IC50_CV/CYT (CV/CYT by CellTiter-Glo)
Method: (§1) B. Coating of Seahorse Spheroid plates • 20 uL of Poly-D-Lysine (100 ug/mL diluted in cell culture grade water) were added to each well of the Seahorse Spheroid plate (Incubation for 20min @ RT) • After coating, the Seahorse Spheroid plate was washed with 200 uL of sterile water and wash was removed (Washing step repeated once) • Seahorse Spheroid plate has been air dried for a few minutes
(§2) D. Seahorse XF Analyzer Run • While cell incubation fill up the ports of the cartridge according to the Seahorse manufacturer's protocol • Setup groups and parameters for the measurement (basal: 7 cycles, oligomycin 2 uM: 6 cycles, FCCP 0.5 uM: 3 cycles, FCCP 1 uM: 3 cycles, Rot/AA 0.5 uM: 9 cycles) • Start the measurement
(§3) DILI classification: Drug-induced liver injury according to Gustafsson et al, 2014 (N=negative, P=positive). CMax=concentration of candidate compound used in Gustafsson et al, 2014; CTop=concentration of candidate compound used herein; IC50CV/Cyt determined by the CellTiter-Glo Luminescent Cell Viability Assay (Promega, Madison, US) as disclosed herein, IC50MTSRR determined as inhibition on spare respiratory capacity (SPARE), as disclosed herein; MOS: Margin of safety; High Mito-toxic risk: IC5O_MTSRR<0.75×IC5O_CV/CYT; Low Mito-toxic risk: IC5O_MTSRR<IC5O_CV/CYT and IC5O_MTSRR≥0.75×IC5O_CV/CYT; No Mito-toxic risk: IC5O_MTSRR≥IC5O_CV/CYT

[3] = test system: 3D primary human hepatocytes microtissues (IPHH_02)
Method: as §1, §2, §3

SMILES	DILI classification [1]	Mitochondrial toxicity risk [2]	Mitochondrial toxicity risk [3]
CN(C)C(=N)N=C(N)N [Metformin HCl]	not liver toxic	low mitochondrial toxicity	
O=c1[nH]c(=O)n([C@@H]2O[C@H](CO)[C@@H](O)[C@@H]2F)cc1I [Fialuridine]	liver toxic		not have specific mitochondrial toxicity
